The values below come from patent US20110263664A1, “Inhibitors of PIM-1 Protein Kinases, Compositions and Methods for Treating Prostate Cancer” (MUSC FOUNDATION FOR RESEARCH DEVELOPMENT, priority 2007, published 2011).

Data set [1] concerns the target PIM2 (Homo sapiens, UniProt Q9P1W9). The data set is described as follows: Pim-2 kinase IC50, Table 2. Format: biochemical.
Data set [2] has as its system Human prostate cancer PC3 cells. Put plainly: Cytotoxicity assay (MTS), PC3 cells, Table 3. Conditions: PC-3, 48 hours, read-out: IC50 (PC3 cell assay). The data set is classed as cell-based.
Experimental: Varying concentrations of the test compounds are then added to each well, and the plates were incubated for an additional 48 hours. The number of surviving cells was determined by the MTS assay (Promega). The percentage of cells killed was calculated as the percentage decrease in MTS metabolism compared with control cultures.
The target in data set [3] is T1, PIM1 (Homo sapiens, UniProt P11309). Put plainly: Pim-1 protein kinase assay (Procedure 1), Table 1. More on the design: purchased Upstate 14-573. Format: biochemical.
Text: The following in vitro procedure can be used to evaluate compounds for inhibition of Pim-1 protein kinase.
The test system of data set [4] is phosphoBad in 22Rv1-Pim and DU145-Pim cells. The data set is described as follows: PhosphoBad level by Western blotting in Pim-1 transfected prostate cancer cells. Particulars: 1 hour, serum-free conditions; total Bad constant. The data set is classed as cell-based, human.
Data set [5] relates to p27^Kip1 in K562, U937, and MV7;11 cells. The data set is described as follows: p27Kip1 location in cytoplasmic and nuclear fractions. Conditions: 72 hours, media containing 10% FCS; all three cell lines. The data set is classed as cell-based, human. On the procedure:
To examine p27^Kip1 location, K562, U937 or MV7;11 cells (1×10^5/mL) were incubated for 72 hours in complete media with DMSO or a disclosed Pim-1 and/or Pim-2 inhibitor. Cells were harvested, washed in PBS and cytoplasmic and nuclear fractions were prepared using the NE-PER Nuclear and Cytoplasmic Extraction kit (Pierce Biotechnology, Rockford, Ill.) according to the manufacturer's instructions, followed by SDS-PAGE and western blotting with anti-p27^Kip1 antibody, as described above. To measure Cdk2 activity, this protein was immunoprecipitated from K562, U937, or MV7;11 cells treated for 72 hours with Pim inhibitors, lysed in buffer (50 mM Tris-HCl, pH 8.0 containing 5 mM EDTA, 150 mM NaCl, 1% NP-40 and 1 mM phenylmethylsulfonyl fluoride) followed by the addition of Cdk2 antibody (2 μg). Samples were then rotated overnight at 4° C., and Cdk2 was immunoprecipitated by the addition of protein G beads (Pierce Biotechnology) with rotation at room temperature for 1 h. […] Reactions were allowed to proceed for 15 minutes at 37° C., and then analyzed by SDS-PAGE. ^32P-Phosphorylated histone H1 was visualized by autoradiography, and Cdk2 protein levels detected by Western blotting, as described above.

For data set [6], the system named is PC3, DU145, LNCaP, U937, K582, and MV7;11 cell lines. The data set is described as follows: Growth inhibition of cancer cell lines, 72 hours. The data set is classed as cell-based, human. Particulars: treatment for 72 hours in culture.
Data set [7] has as its system MV7;11 and FDCP1 cells. The data set is described as follows: Combined treatment with rapamycin, growth inhibition. The data set is classed as cell-based.
Data set [8] deals with AMPK protein kinase. The data set is described as follows: Phosphorylation of AMPK on threonine 172. From the text: This phosphorylation is known to activate this protein kinase and lead to the phosphorylation of TSC2 and the inhibition of TOR protein kinase (Molecular Cell 30: 214-226, 2008; Oncogene 26: 1616-1625, 2007).
In data set [9] the test system is Cdk2 activity in K562 cells. Particulars: K562 cells treated 72 hours, 10% FCS; histone H1 as substrate.
Data set [10] deals with T1, PIM1. Conditions: 5 μM, in vitro.
The target of data set [11] is T1, PIM1. Put plainly: biochemical.
Data set [12] concerns DU145 and MV7;11 cells. Put plainly: Cell cycle distribution by FACS. Conditions: 5 μM for 72 hours; DU145 in 2% serum, MV7;11 in 10% serum; compared to DMSO control.
Data set [13] concerns PC-3 prostate cancer cell. The data set is described as follows: PC-3 cell viability with or without rapamycin. Conditions: administered alone, doses of 1 and 3 μM, after 36 hours. Format: cell-based, human. From the text:
FIG. 5 depicts the results of these experiments.

Data set [14] concerns phosphoBad in FDCP1-Pim cells. Put plainly: PhosphoBad time course in FDCP1-Pim cells. The data set is classed as cell-based, murine. Particulars: 5 μM, serum and IL-3-free conditions, by 2 hours, compared to DMSO-treated cells.
Data set [15] relates to 4E-BP1 phosphorylation in FDCP1 cells.
Data set [16] relates to 22Rv1-Pim cells. Put plainly: Apoptosis (sub G1, FACS) in 22Rv1-Pim cells. Conditions: 5 μM, 72 hours, serum-free conditions.

SMILES strings stand for the structures. Read-outs that look alike come from different tables or passages of the source.

T1 sequence (P11309 whole entry): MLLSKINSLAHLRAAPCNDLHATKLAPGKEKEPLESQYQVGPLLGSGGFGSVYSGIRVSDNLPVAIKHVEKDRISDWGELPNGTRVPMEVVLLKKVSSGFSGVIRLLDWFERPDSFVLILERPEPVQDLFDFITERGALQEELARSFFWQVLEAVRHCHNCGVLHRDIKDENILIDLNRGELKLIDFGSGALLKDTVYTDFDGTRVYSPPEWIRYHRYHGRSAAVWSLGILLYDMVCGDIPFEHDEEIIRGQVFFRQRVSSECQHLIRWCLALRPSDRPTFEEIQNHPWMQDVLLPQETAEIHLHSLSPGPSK
PIM2, sequence (Q9P1W9 whole entry): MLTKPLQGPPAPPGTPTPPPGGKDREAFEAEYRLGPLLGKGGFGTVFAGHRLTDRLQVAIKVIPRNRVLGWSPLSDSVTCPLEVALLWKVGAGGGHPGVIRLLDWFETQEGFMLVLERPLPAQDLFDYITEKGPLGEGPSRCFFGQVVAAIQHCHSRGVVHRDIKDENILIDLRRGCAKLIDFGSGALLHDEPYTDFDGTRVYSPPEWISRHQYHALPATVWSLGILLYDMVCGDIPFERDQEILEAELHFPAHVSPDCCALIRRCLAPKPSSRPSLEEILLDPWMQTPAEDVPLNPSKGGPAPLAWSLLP

As to `O=C1NC(=O)/C(=C/c2cccc(Br)c2)S1` [Compound D3], the values for the IC50 in data set [1], in data set [2] and in [3] were 90 ± 40 nM, 58000 ± 11000 nM and 45000 ± 11000 nM, respectively.
Regarding `Cc1ccc(/C=C2\SC(=O)NC2=O)cc1` [Compound D12], the values for the IC50 in data set [1] and in data set [2] were 4400 ± 200 nM and above 100000 nM, respectively.
Take `O=C1NC(=O)/C(=C/c2ccc(Cl)cc2)S1` [Compound D10]: the IC50 was 200 ± 100 nM in data set [1] and 40 ± 30 nM in data set [3].
Turning to `COc1cccc(/C=C2\SC(=O)NC2=O)c1` [Compound D6], the IC50 in data set [2] was 73000 ± 13000 nM; in [3] it was 650 ± 50 nM.
As for `Cc1cccc(/C=C2\SC(=O)NC2=O)c1` [Compound D4], the IC50 in data set [1] turned out to be 100 ± 100 nM; in data set [3], 160 ± 40 nM.
Take `CN(C)c1ccc(/C=C2\SC(=O)NC2=O)cc1` [Compound D20]: the IC50 in [1] was 100 ± 100 nM; in data set [2], 66000 ± 13000 nM; in data set [3] it was 6000 ± 1700 nM.
With `O=C1NC(=O)/C(=C/c2cccc(OC(F)(F)F)c2)S1` [Compound D7], the IC50 in data set [1] amounted to 900 ± 400 nM; in data set [3], 67 ± 61 nM.
With `CCCOc1ccc(/C=C2\SC(=O)NC2=O)cc1` [Compound D16, 5-(4-propoxybenzylidene)thiazolidine-2,4-dione], the IC50 in [1] is 20 ± 10 nM; in data set [11], 63 ± 11 nM; in [3] it was 150 ± 110 nM. Besides, the “level of phosphoBad” value in data set [4] was “decreased in a dose-dependent manner”. Moreover, the “amount of p27^Kip1 in nuclear fractions” value in [5] is “increase in the amount of p27^Kip1 in nuclear fractions”. The “growth inhibition of cancer cell lines” value in data set [6] is “growth inhibition of each cell line”. The “growth inhibition, combined treatment with rapamycin” value in data set [7] (72 hours, rapamycin 5 nM plus compound 5 μM, MV7;11 and FDCP1 cells) was “significant growth inhibition”. For the same compound, the “phosphorylation of AMPK on threonine 172” value in data set [8] is “increase the phosphorylation”. Further, the “decreased Cdk2 activity” value in [9] is on record as around 60%. Also, the “phosphorylation of p27^Kip1 by Pim-1” value in [10] is “reduce phosphorylation”. For the same compound, the cell cycle arrest result in data set [12] is recorded as “significant G1 cell cycle arrest”.
In the case of `COc1cccc(/C=C2/C(=O)NC(=O)N2Cc2ccccc2)c1` [Compound D32], the IC50 in data set [2] came to 80000 ± 15000 nM.
For `CC(C)c1ccc(/C=C2\SC(=O)NC2=O)cc1` [Compound D17], the IC50 in [1] was above 100000 nM; in [3] it was 40 ± 30 nM.
In the case of `CCc1ccc(/C=C2\SC(=O)NC2=O)cc1` [Compound D13], the values for the IC50 in [1] and in [3] were 300 ± 100 nM and 600 ± 100 nM, respectively.
For the compound `O=C1NC(=O)/C(=C/c2cccc(F)c2)S1` [Compound D1], the IC50 in data set [1] was 400 ± 200 nM; in data set [3], 130 ± 60 nM.
In the case of `COc1ccc(/C=C2\SC(=O)NC2=O)cc1` [Compound D14], the IC50 in [1] was found to be 300 ± 100 nM; in data set [2], 11000 ± 1000 nM; in data set [3], 5100 ± 5000 nM.
Regarding `O=C1NC(=O)/C(=C/c2cccc(C(F)(F)F)c2)S1` [Compound D5, 5-(3-trifluoromethylbenzylidene)thiazolidine-2,4-dione], the IC50 in data set [1] came out at 100 ± 300 nM. Besides, the “inhibition of cell viability” value in data set [13] worked out at 40%. Also, the “amount of p27^Kip1 in nuclear fractions” value in data set [5] is recorded as “increase in the amount of p27^Kip1 in nuclear fractions”. Moreover, the “growth inhibition of cancer cell lines” value in data set [6] is recorded as “growth inhibition of each cell line”. The “growth inhibition, combined treatment with rapamycin” value in data set [7] was “significant growth inhibition”. In [8], the “phosphorylation of AMPK on threonine 172” value was “increase the phosphorylation”. Also, in data set [14], the phosphoBad levels entry was “reduction in phosphoBad levels”. In data set [15] (1 hour, absent rapamycin), the “concentration at which phosphorylation of 4E-BP1 was inhibited” value lay within 1.6 to 3.2 µM. The “effect on rapamycin inhibition of 4E-BP1 phosphorylation” value in data set [15] (with or without serum, combined with rapamycin) was “enhanced the ability of rapamycin to inhibit 4E-BP1 phosphorylation”. Moreover, the cell cycle arrest result in data set [12] is “significant G1 cell cycle arrest”. Besides, in data set [16], the “sub G1 population” value is 38.1%.
As for `O=C1NC(=O)/C(=C/c2cccc(Cl)c2)S1` [Compound D2], the IC50 is 400 ± 150 nM in data set [1] and 600 ± 510 nM in data set [3].
Take `CCOc1ccc(/C=C2\SC(=O)NC2=O)cc1` [Compound D15]: the results for the IC50 in data set [1], in data set [2] and in [3] were 43000 ± 18000 nM, 65000 ± 17000 nM and 170 ± 40 nM, respectively.
With `O=C1NC(=O)/C(=C/c2cccc(OC(F)(F)C(F)F)c2)S1` [Compound D8], the values for the IC50 in data set [1] and in [3] were 2200 ± 1100 nM and 73 ± 53 nM, respectively.
As for `O=C1S/C(=C\c2ccc(F)cc2)C(=O)N1Cc1ccccc1F` [Compound D27], the IC50 in data set [2] was above 100000 nM; in data set [3] it was 45000 ± 15000 nM.
As to `O=C1NC(=O)/C(=C/c2ccc(OC(F)(F)F)cc2)S1` [Compound D19], the IC50 in data set [1] worked out at 500 ± 200 nM; in [2] it was 48000 ± 27000 nM.
On to `O=C1NC(=O)/C(=C/c2ccc(C(F)(F)F)cc2)S1` [Compound D18], for which the results for the IC50 in data set [1] and in [3] were 80 ± 20 nM and 330 ± 130 nM, respectively.
Compound `CN(C)c1ccc(/C=C2/C(=O)NC(=O)N2Cc2ccccc2)cc1` [Compound D31] came in with a half-maximal inhibitory concentration (IC50) in data set [3] of 78000 ± 7500 nM.
`O=C1NC(=O)/C(=C/c2ccc(F)cc2)S1` [Compound D9]: the figures for the IC50 in data set [1] and in data set [2] were 2300 ± 100 nM and 93000 ± 5000 nM, respectively.
In turn, `O=C1NC(=O)N(Cc2ccccc2)/C1=C\c1ccc(Br)cc1` [Compound D30] gave an IC50 in [3] of 58000 ± 7500 nM.
For `O=C1NC(=O)/C(=C/c2ccc(Br)cc2)S1` [Compound D11], 28000 ± 23000 nM corresponded to half-maximal inhibition in data set [3] (IC50).
